In the CheMixHub viscosity set:

Assay: xn = mol fraction of the nth substance listed

C1C[C@@H]2[C@H]3CC[C@H](C3)[C@@H]2C1 + CC(C)CO
viscosity [mPa·s], 100 kPa
Conditions	x1 = 0.1002	x1 = 0.2	x1 = 0.3002	x1 = 0.4003	x1 = 0.4998	x1 = 0.6003	x1 = 0.7002	x1 = 0.7994	x1 = 0.8979
293.15 K	3.668	3.397	3.217	3.04	2.883	2.814	2.769	2.78	2.848
298.15 K	3.135	2.923	2.772	2.644	2.541	2.489	2.47	2.493	2.563
303.15 K	2.692	2.526	2.408	2.318	2.247	2.219	2.219	2.249	2.323
308.15 K	2.325	2.196	2.108	2.044	1.998	1.99	2.003	2.037	2.113
313.15 K	2.02	1.92	1.856	1.814	1.787	1.79	1.814	1.854	1.929
318.15 K	1.764	1.689	1.645	1.616	1.607	1.618	1.646	1.695	1.77
323.15 K	1.551	1.494	1.465	1.448	1.452	1.471	1.507	1.555	1.627

ClCCCCCl + CC(C)CO
viscosity [mPa·s], 101 kPa
Conditions	x1 = 0.0994	x1 = 0.1958	x1 = 0.2938	x1 = 0.4026	x1 = 0.5	x1 = 0.6041	x1 = 0.7031	x1 = 0.801	x1 = 0.8984
298.15 K	2.524	2.027	1.715	1.501	1.371	1.285	1.236	1.208	1.215
313.15 K	1.648	1.381	1.207	1.097	1.02	0.977	0.9567	0.9491	0.9661

CCC(=O)O + CC(C)O
viscosity [mPa·s], 101 kPa
Conditions	x2 = 0.007361	x2 = 0.0288	x2 = 0.04944	x2 = 0.06903	x2 = 0.1	x2 = 0.1291	x2 = 0.1819	x2 = 0.2287
298.15 K	2.67	2.6	2.54	2.475	2.4	2.342	2.277	2.22
308.15 K	1.99	1.948	1.915	1.882	1.836	1.8	1.75	1.71
318.15 K	1.54	1.52	1.5	1.484	1.454	1.428	1.392	1.367

C1C[C@@H]2[C@H]3CC[C@H](C3)[C@@H]2C1 + CC(C)OC(C)C
viscosity [mPa·s], 101.33 kPa
Conditions	x2 = 0.1	x2 = 0.2043	x2 = 0.3168	x2 = 0.4	x2 = 0.4997	x2 = 0.5937	x2 = 0.703	x2 = 0.8066	x2 = 0.9085
293.15 K	2.279	1.725	1.309	1.074	0.865	0.719	0.592	0.493	0.412
298.15 K	2.062	1.572	1.206	0.995	0.802	0.666	0.556	0.473	0.391
303.15 K	1.88	1.441	1.116	0.926	0.76	0.631	0.532	0.454	0.376
308.15 K	1.712	1.324	1.026	0.861	0.706	0.593	0.497	0.426	0.357
313.15 K	1.573	1.226	0.95	0.799	0.659	0.558	0.469	0.402	0.338

CCC(=O)O + CCC(C)=O
viscosity [mPa·s], 101 kPa
Conditions	x2 = 0.0847	x2 = 0.1723	x2 = 0.2585	x2 = 0.357	x2 = 0.4544	x2 = 0.5554	x2 = 0.6602	x2 = 0.7691	x2 = 0.8822
293.15 K	1.038	0.9722	0.9093	0.8393	0.7718	0.7038	0.6354	0.5665	0.4974
303.15 K	0.9022	0.846	0.7921	0.7324	0.6751	0.6177	0.556	0.5027	0.4455
313.15 K	0.7975	0.7494	0.7031	0.6516	0.6019	0.5519	0.5015	0.4508	0.4
